From ChEMBL document CHEMBL1150099, “An improved source of bryostatin 10, Bugula neritina from the Gulf of Aomori, Japan” (1995) come the findings set out here.

≈ marks a conversion by molar mass, not a printed value. Calls of active or inactive are those of the source. The calls are words filed in the database; no cut-off is given here.

One experiment deals with P388. The experiment in a line: Cytotoxicity against mouse P388 cells. The class given is functional. The following applies: read-out: ED50 (the source's name).
A short description of experiment [1]: Inhibition of fertilized sea urchin egg cell division. The class given is functional. The following applies: Echinoidea, read-out: ED50 (the source's name).
The nature of experiment [2]: Increase in ACTH-induced steroidogenesis in bovine adrenocortical cells measured per 10^5 cells. It counts as functional, Bos taurus.
The next experiment has as its system Echinoidea. The experiment in a line: Inhibition of fertilization of sea urchin egg at 1 ug/ml. The class given is functional.
In another experiment the test system is Sperm. The experiment in a line: Inhibition of movement of sea urchin sperm at 1 ug/ml. It counts as functional, cell-based. The conditions noted are these: Echinoidea.

For `COC(=O)/C=C1/C[C@H]2C[C@]3(O)O[C@H](C[C@@H](O)CC(=O)O[C@@H]([C@@H](C)O)C[C@@H]4C/C(=C\C(=O)OC)C[C@@](O)(O4)C(C)(C)/C=C/[C@@H](C1)O2)C[C@H](OC(=O)C(C)(C)C)C3(C)C` [BRYOSTATIN 10], the EC50 in the experiment with P388 is 0.0018 µg/mL (≈ 0.00223 µM); in experiment [1] it was 0.16 µg/mL (≈ 0.198 µM). The Activity in experiment [2] is 1141 pmol/h.

Turning to `CCC(=O)O[C@H](C)[C@H]1C[C@@H]2C/C(=C/C(=O)OC)C[C@@](O)(O2)C(C)(C)/C=C/[C@H]2C/C(=C\C(=O)OC)C[C@@H](C[C@]3(O)O[C@H](C[C@@H](O)CC(=O)O1)C[C@H](OC(=O)C(C)(C)C)C3(C)C)O2`, in the experiment on P388, the EC50 stood at 0.52 µg/mL (≈ 0.601 µM). Further, the inhibition with Echinoidea is 80%. Besides, the result in the experiment on Sperm was Active.

Turning to `COC(=O)/C=C1/C[C@H]2C[C@]3(O)O[C@H](C[C@@H](O)CC(=O)O[C@@H]([C@@H](C)OC(C)=O)C[C@@H]4C/C(=C/C(=O)OC)C[C@@](O)(O4)C(C)(C)/C=C/[C@@H](C1)O2)C[C@H](OC(=O)C(C)(C)C)C3(C)C`, the EC50 with P388 was found to be 0.44 µg/mL (≈ 0.517 µM). Further, in the experiment with Echinoidea, the inhibition worked out at 80%.

Take `COC(=O)/C=C1\C=C2O[C@@H](C1)C[C@H]([C@@H](C)O)OC(=O)C[C@H](O)C[C@@H]1C[C@H](OC(=O)C(C)(C)C)C(C)(C)[C@](O)(C[C@@H]3C/C(=C/C(=O)OC)C[C@H](/C=C/C2(C)C)O3)O1` [BRYOSTATIN 17]: the EC50 in experiment [1] was 0.3 µg/mL (≈ 0.379 µM). In the experiment on Echinoidea, this molecule showed an inhibition of 100%.

As to `CCCC(=O)O[C@H](C)[C@H]1C[C@@H]2C/C(=C/C(=O)OC)C[C@@](O)(O2)C(C)(C)/C=C/[C@H]2C/C(=C\C(=O)OC)C[C@@H](C[C@]3(O)O[C@H](C[C@@H](O)CC(=O)O1)C[C@H](OC(=O)C(C)(C)C)C3(C)C)O2`, the EC50 in the experiment with P388 came out at 0.32 µg/mL (≈ 0.364 µM). The inhibition with Echinoidea is 80%.

One may read the inhibition as the percentage by which the read-out fell short of the control.
